# Patent publication US8987195B2 (priority 2012, dated 2015)
# Where two headings read alike, the source gives them in different places.
# Legend:
# HCV genotype 1b replicon = assay: HCV replicon assay, genotype 1b replicon EC50; format: cell-based, Hepatitis C virus; details: genotype 1b replicon, read-out: EC50 [gt-1b]
# Procedure: Measuring Compound Inhibitory Potency (Genotype 1b Replicon EC50 (nM))
# Measurement of inhibition by compounds was performed using the HCV replicon system. Several different replicons encoding different HCV genotypes or mutations were used. In addition, potency measurements were made using different formats of the replicon assay, including different ways of measurements and different plating formats. See Jan M. Vrolijk et al., A replicons-based bioassay for the measurement of interferons in patients with chronic hepatitis C, 110 J. VIROLOGICAL METHODS 201 (2003); Steven S. Carroll et al., Inhibition of Hepatitis C Virus RNA Replication by 2′-Modified Nucleoside Analogs, 278(14) J. BIOLOGICAL CHEMISTRY 11979 (2003). However, the underlying principles are common to all of these determinations, and are outlined below.
# Stable neomycin phosphotransferase encoding replicon-harboring cell lines were used, so all cell lines were maintained under G418 selection prior to the assay. In some cases the cell lines encoded a luciferase:Neo^r fusion and could be assayed either directly by determination of RNA copy number, or indirectly through measurement of the luciferase activity.
# To initiate an assay, replicon cells were plated in the presence of a dilution series of test compound in the absence of G418. Typically, the assays were performed in a 96-well plate format for manual operation, or a 384 well plate in an automated assay. Replicon cells and compound were incubated for 24-48 hours, depending on the assay. At the end of the assay, cells are washed free of media and compound and then lysed. For direct quantitation, RNA levels were measured by ^32P-probe hybridization and protection, or in a TAQMAN based assay and normalized to cellular cyclophilin A RNA levels. In some cases, luciferase activity was measured using a conventional luciferase assay. In all cases EC50 determinations were calculated as a percent of a DMSO control by fitting the data to a four parameter fit function.
# [1] = molecular target: HCV NS3/4A protease genotype 1b (Hepatitis C virus genotype 1b, UniProt P26663); assay: HCV NS3/4A protease time-resolved fluorescence (TRF) assay, Ki against genotype 1b; format: biochemical; details: IC50 [gt-1b] (nM), NS3/4A genotype 1b, enzyme 0.2 nM
# Outline: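 NS3/4A enzyme was preincubated 30 min with inhibitor in 50 mM HEPES pH 7.5, 150 mM NaCl, 15% glycerol, 0.15% Triton X-100, 10 mM DTT, 0.1% PEG 8000; 25 nM europium TRF peptide substrate added, 2.5 h at room temperature. Enzyme: 0.2 nM (1b), 0.4 nM (A156T), 0.025 nM (3a). Ki from IC50 via Cheng-Prusoff.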
Compound,EC50 (HCV genotype 1b replicon; Hepatitis C virus) [nM],IC50 [1] [nM],EC50 (HCV genotype 1b replicon) [nM],"EC50 (HCV genotype 1b replicon; Hepatitis C virus, HCOOH salt) [nM]",IC50 ([1]; HCOOH salt) [nM]
"Cc1nc2ccccc2c2c1O[C@]1(CC2)C[C@H]2C(=O)N[C@]3(C(=O)NS(=O)(=O)C4(C)CC4)C[C@H]3/C=C\CCCCC[C@H](NC(=O)OC(CN(C)S(C)(=O)=O)C(C)(C)C)C(=O)N2C1 (single isomer, unassigned) [Example 259]",24,0.007,–,–,–
"Cc1nc2ccccc2c2c1O[C@]1(CC2)C[C@H]2C(=O)N[C@]3(C(=O)NS(=O)(=O)C4(C)CC4)C[C@H]3/C=C\CCCCC[C@H](NC(=O)OC(CN(C)S(C)(=O)=O)C(C)(C)C)C(=O)N2C1 (single isomer, unassigned) [Example 262]",–,0.037,38.9,–,–
"COc1ccc2c3c(c(C4CC4)nc2c1)O[C@]1(CC3)C[C@H]2C(=O)N[C@]3(C(=O)NS(=O)(=O)C4(C)CC4)C[C@H]3/C=C\CCCCC[C@H](NC(=O)CC(C)(C)C)C(=O)N2C1 (single isomer, unassigned) [Example 279]",–,–,–,22.3,0.051
"CCc1ccc2nc(C)c3c(c2c1)C(F)C[C@]1(C[C@H]2C(=O)N[C@]4(C(=O)NS(=O)(=O)C5(C)CC5)C[C@H]4/C=C\CCCCC[C@H](NC(=O)OC(C)(C)C)C(=O)N2C1)O3 (single isomer, unassigned) [Example 315]",–,1.29,294,–,–
"CCc1ccc2nc(C)c3c(c2c1)C(F)C[C@]1(C[C@H]2C(=O)N[C@]4(C(=O)NS(=O)(=O)C5(C)CC5)C[C@H]4/C=C\CCCCC[C@H](NC(=O)OC(C)(C)C)C(=O)N2C1)O3 (single isomer, unassigned) [Example 316]",–,0.008,2.63,–,–
"CCc1ccc2nc(C)c3c(c2c1)C(F)C[C@]1(C[C@H]2C(=O)N[C@]4(C(=O)NS(=O)(=O)C5(C)CC5)C[C@H]4/C=C\CCCCC[C@H](NC(=O)OC(C)(C)C(F)(F)F)C(=O)N2C1)O3 (single isomer, unassigned) [Example 346]",–,0.012,4.23,–,–
"CCc1ccc2nc(C)c3c(c2c1)C(F)C[C@]1(C[C@H]2C(=O)N[C@]4(C(=O)NS(=O)(=O)C5(C)CC5)C[C@H]4/C=C\CCCCC[C@H](NC(=O)OC(C)(C)C(F)(F)F)C(=O)N2C1)O3 (single isomer, unassigned) [Example 347]",–,0.981,3060,–,–
"Cc1nc2ccc(OC(F)(F)F)cc2c2c1O[C@]1(CC2)C[C@H]2C(=O)N[C@]3(C(=O)NS(=O)(=O)C4(C)CC4)C[C@H]3/C=C\CCCCC[C@H](NC(=O)OC(C)(C)C)C(=O)N2C1 [Example 1, tert-butyl (2R,6S,13aS,14aR,16aS,Z)-5′-methyl-14a-(1-methylcyclopropylsulfonylcarbamoyl)-5,16-dioxo-9′-(trifluoromethoxy)-1′,2′,3,5,6,7,8,9,10,11,13a,14,14a,15, 16,16a-hexadecahydro-1H-spiro[cyclopropa[e]pyrrolo[1,2-a][1,4]diazacyclopentadecine-2,3′-pyrano[2,3-c]quinoline]-6-ylcarbamate]",1.47,0.013,–,–,–
"COc1ccc2nc(C(C)C)c3c(c2c1)CC[C@]1(C[C@H]2C(=O)N[C@]4(C(=O)NS(=O)(=O)C5(C)CC5)C[C@H]4/C=C\CCCCC[C@H](NC(=O)OC(C)(C)C)C(=O)N2C1)O3 [Example 2, tert-Butyl (2R,6S,13aS,14aR,16aS,Z)-5′-isopropyl-9′-methoxy-14a-(1-methylcyclopropylsulfonylcarbamoyl)-5,16-dioxo-1′,2′,3,5,6,7,8,9,10,11,13a,14,14a,15,16,16a-hexadecahydro-1H-spiro[cyclopropa[e]pyrrolo[1,2-a][1,4]diazacyclopentadecine-2,3′-pyrano[2,3-c]quinoline]-6-ylcarbamate]",1.19,0.012,–,–,–
"COc1ccc2nc(C(C)C)c3c(c2c1)C(F)(F)C[C@]1(C[C@H]2C(=O)N[C@]4(C(=O)NS(=O)(=O)C5(C)CC5)C[C@H]4/C=C\CCCCC[C@H](NC(=O)OC(C)(C)C)C(=O)N2C1)O3 [Example 3, tert-Butyl (2S,6S,13aS,14aR,16aS,Z)-1′,1′-difluoro-5′-isopropyl-9′-methoxy-14a-(1-methylcyclopropylsulfonylcarbamoyl)-5,16-dioxo-1′,2′,3,5,6,7,8,9,10,11,13a,14,14a, 15,16,16a-hexadecahydro-1H-spiro[cyclopropa[e]pyrrolo[1,2-a][1,4]diazacyclopentadecine-2,3′-pyrano[2,3-c]quinoline]-6-ylcarbamate]",2.9,0.004,–,–,–
"CC(C)(C)OC(=O)N[C@H]1CCCCC/C=C\[C@@H]2C[C@@]2(C(=O)NS(=O)(=O)C2(C)CC2)NC(=O)[C@@H]2C[C@]3(CCc4c(c(C(F)(F)F)nc5ccccc45)O3)CN2C1=O [Example 4, tert-Butyl (2R,6S,13aS,14aR,16aS,Z)-14a-(1-methylcyclopropylsulfonylcarbamoyl)-5,16-dioxo-5′-(trifluoromethyl)-1′,2′,3,5,6,7,8,9,10,11,13a,14,14a,15,16,16a-hexadecahydro-1H-spiro[cyclopropa[e]pyrrolo[1,2-a][1,4]diazacyclopentadecine-2,3′-pyrano[2,3-c]quinoline]-6-ylcarbamate]",0.813,0.009,–,–,–
"COc1ccc2nc(C(F)(F)F)c3c(c2c1)CC[C@]1(C[C@H]2C(=O)N[C@]4(C(=O)NS(=O)(=O)C5(C)CC5)C[C@H]4/C=C\CCCCC[C@H](NC(=O)OC(C)(C)C)C(=O)N2C1)O3 [Example 5, tert-Butyl (2R,6S,13aS,14aR,16aS,Z)-9′-methoxy-14a-(1-methylcyclopropylsulfonylcarbamoyl)-5,16-dioxo-5′-(trifluoromethyl)-1′,2′,3,5,6,7,8,9,10,11,13a,14,14a,15,16, 16a-hexadecahydro-1H-spiro[cyclopropa[e]pyrrolo[1,2-a][1,4]diazacyclopentadecine-2,3′-pyrano[2,3-c]quinoline]-6-ylcarbamate]",1.36,0.015,–,–,–
"CC(C)(C)OC(=O)N[C@H]1CCCCC/C=C\[C@@H]2C[C@@]2(C(=O)NS(=O)(=O)C2(C)CC2)NC(=O)[C@@H]2C[C@]3(CCc4c(c(C(F)(F)F)nc5ccc(OCCN6CCOCC6)cc45)O3)CN2C1=O [Example 7, tert-Butyl ((2R,6S,13aS,14aR,16aS,Z)-14a-(((1-methylcyclopropyl)sulfonyl)carbamoyl)-9′-(2-morpholinoethoxy)-5,16-dioxo-5′-(trifluoromethyl)-1′,2′,3,5,6,7,8,9,10, 11,13a,14,14a,15,16,16a-hexadecahydro-1H-spiro[cyclopropa[e]pyrrolo[1,2-a][1,4]diazacyclopentadecine-2,3′-pyrano[2,3-c]quinolin]-6-yl)carbamate]",0.433,0.02,–,–,–
"Cc1nc2ccccc2c2c1O[C@]1(CC2)C[C@H]2C(=O)N[C@]3(C(=O)NS(=O)(=O)C4(C)CC4)C[C@H]3/C=C\CCCCC[C@H](NC(=O)CC(F)(F)F)C(=O)N2C1 [Example 84, (2R,6S,12Z,13aS,14aR,16aS)-5′-methyl-N-[(1-methylcyclopropyl)sulfonyl]-5,16-dioxo-6-[(3,3,3-trifluoropropanoyl)amino]-1,1′,2′,6,7,8,9,10,11,13a,14,15,16,16a-tetradecahydrospiro[cyclopropa[e]pyrrolo[1,2-a][1,4]diazacyclopentadecine-2,3′-pyrano[2,3-c]quinoline]-14a(5H)-carboxamide]",7.79,–,–,–,–
"Cc1ccc2nc(C)c3c(c2c1)CC[C@]1(C[C@H]2C(=O)N[C@]4(C(=O)O)C[C@H]4/C=C\CCCCC[C@H](NC(=O)OC(C)(C)C)C(=O)N2C1)O3 [Example 86, (2R,6S,12Z,13aS,14aR,16aS)-6-[(tert-butoxycarbonyl)amino]-5′,9′-dimethyl-5,16-dioxo-1,1′,2′,6,7,8,9,10,11,13a,14,15,16,16a-tetradecahydrospiro[cyclopropa[e]pyrrolo[1,2-a][1,4]diazacyclopentadecine-2,3′-pyrano[2,3-c]quinoline]-14a(5H)-carboxylic acid]",> 100,–,–,–,–
"CC(C)OC(=O)N[C@H]1CCCCC/C=C\[C@@H]2C[C@@]2(C(=O)NS(=O)(=O)C2(C)CC2)NC(=O)[C@@H]2C[C@]3(CCc4c(c(-c5cccc(F)c5)nc5ccccc45)O3)CN2C1=O [Example 89, propan-2-yl [(2R,6S,12Z,13aS,14aR,16aS)-5′-(3-fluorophenyl)-14a-{[(1-methylcyclopropyl)sulfonyl]carbamoyl}-5,16-dioxo-1,1′,2′,5,6,7,8,9,10,11,13a,14,14a,15,16,16a-hexadecahydrospiro[cyclopropa[e]pyrrolo[1,2-a][1,4]diazacyclopentadecine-2,3′-pyrano[2,3-c]quinolin]-6-yl]carbamate]",2.85,–,–,–,–
